Experimental data reported in patent publication US20230145643A1, “AGENTS FOR USE IN THE THERAPEUTIC OR PROPHYLACTIC TREATMENT OF RETINAL PIGMENT EPITHELIUM ASSOCIATED DISEASES” (priority 2020, published 2023).
“And” between values parts separate entries of the source, which are not always exact repeats. Equal entries are not always repeated. Where two headings read alike, the source gives them in different places.

Legend:
guinea pig eyes = assay: Toxicity test of intravitreally administered amphiregulin (guinea pigs); type: in vivo
Method: Methods and Material: Two to three-week old guinea pigs were divided into four groups:
animals that received an intravitreal administration of amphiregulin (dose: 10 ng in 5 μl) into one eye and an intravitreal administration of vehicle into the contralateral eye (n=4),
animals that received an intravitreal administration of amphiregulin (dose: 10 ng in 5 μl) into both eyes (n=4),
an animal that received intravitreal administration of amphiregulin (dose: 10 ng in 5 μl) into one eye with the contralateral eye left untreated (n=1), and
animals with both eyes left intact (n=2).
All animals were treated in accordance with the ARVO (association for Research in Vision and Ophthalmology) Statement for the Use of Animals in Ophthalmic and Vision Research and the EC Directive 86/609/EEC for animal experiments. The animals were housed at a constant temperature (22±1° C.) and in a light-controlled environment (lights on from 7 am to 7 pm) with ad libitum access to food and water.
All animals with injections received two intravitreal injections at an interval of ten days.
At each time point, the eyes were inspected for signs of toxicity. Ten days after the second injection, the animals were sacrificed by an overdose of anesthetics. Ocular biometry was performed at baseline, prior to each injection, and prior to the sacrifice of animals. The sonographic ocular biometry was performed using Aviso, The Ultrasound Platform (Quantel Medical, France) under general anesthesia, on the follow-up days 15, 25, 35 and prior the sacrifice on day 45.
After the sacrifice, the eyes of the animals were removed, post-fixed overnight in 4% paraformaldehyde, and embedded in optimal cutting temperature compound, cryosectioned and immunostained against glial activation marker (glial fibrillary acidic protein), microglial cell marker (lba-1), native guinea pig amphiregulin, and injected amphiregulin; or they were embedded in paraffin, sectioned and stained with hematoxylin and eosin for general histologic examination and histomorphometric retinal thickness measurements. In addition, the tissue was stained for apoptotic cell death detection applying the TUNEL method.

bovine RPE cell [1] = settings: bovine RPE cells; cited from earlier work
bovine RPE cell [2] = settings: bovine RPE cells after incubation with growth factor; cited from earlier work
[3] = tested on: eyes of AMD patients (geographic atrophy); assay: Series of seven AMD patients treated with intravitreal EGF; type: in vivo, human
From the text: A series of seven patients were consecutively treated. […] The patients underwent weekly to two-weekly ophthalmological follow-up examinations. Three patients (patients #1, 2, and 3) received a repeated intravitreal injection after an interval of three to four weeks.

[4] = tested on: EGF-EGFR-MAPK signal transduction pathway; settings: human RPE cells in culture; concentration-dependent manner; cited from earlier work
ARPE-19 cell line [5] = assay: RPE cell proliferation (scanning spectrophotometer); type: cell-based, human; settings: dose-dependent; EGF 0.1, 10, 100 μg/L; EGF antibody 0.01, 1.0, 10 mg/L; PBS control
Method: (§1) Materials and Methods: The human ARPE-19 cell line was cultured in a standardized culture medium and incubated at 37° C. under 5% CO2. […] We examined the RPE cell proliferation using of a scanning spectrophotometer. In a second step, we examined the cell migration by a scratch assay.

adult rabbits' eyes = assay: Toxicity test of intravitreally administered EGF (rabbits); type: in vivo, rabbit; settings: for Intraocular pressure (IOP): injected right eye (OD), 100 ng EGF intravitreal
Method: The injections were performed in the upper right quadrant of the eyes in a distance of 3-4 mm from the limbus. At baseline of the study, and at specific dates after the injection the animals were examined using photography of the external eye and anterior and posterior segment of the eye, tonometry, optical coherence tomography (OCT) of the posterior fundus, and fundus photography. Four weeks after a third injection, the animals were sacrificed and the globes were histomorphometrically examined.
After sacrificing the animals, the eyes were enucleated, immediately fixed in a solution of 1% glutaraldehyde and 4% formaldehyde, and kept in that solution for seven days at room temperature. The sagittal, vertical and horizontal globe diameter were subsequently measured. A central segment with a thickness of about 8 mm and running through the optic nerve head and the pupil was cut out of the fixed globes, dehydrated in alcohol, imbedded in paraffin, sectioned for light microscopy with a slide thickness of 4-6 μm, and stained with hematoxylin eosin.
The cell number in the three retinal layers containing cell nuclei was counted. The slides for apoptotic cell death were additionally stained using the TUNEL (terminal deoxynucleotidyl transferase dUTP nick end labeling) technique.

ARPE-19 cell line [6] = assay: RPE cell migration (scratch assay); type: cell-based, human; settings: dose-dependent; EGF 0.1, 10, 100 μg/L; EGF antibody 0.01, 1.0, 10 mg/L; PBS control
Method: as §1

EGFR = EGFR signaling via the PI3K/Akt pathway in RPE culture; type: cell-based; settings: addition of EGF
RPE D407 cells = settings: through both PI3K and ERK/MAPK pathways; cited from earlier work
[7] = tested on: eye of patient with geographic atrophy; type: in vivo, human; settings: for foveolar zone thickness upon optical coherence tomography: 69 μm at baseline
From the text: Optical coherence tomography images of the fundus signs were unchanged. • On the 7th day after the injection, the eye appeared to be untouched, the conjunctival injection had subsided. Visual acuity had improved from 0.03 before the injection to 0.1. […] Upon optical coherence tomography, the foveolar zone increased in thickness from 69 μm at baseline to 71 μm at seven days after the injection, and to 73 μm two weeks later (FIGS. 3a, b).

[8] = injected eyes vs eyes injected with PBS or untouched eyes
[9] = 0.75 μg EGF intravitreal, one line per patient (1-7)
[10] = after the repeated intravitreal injections

Amphiregulin
animal weight (guinea pig eyes; four groups, 10 ng in 5 μl intravitreal, two injections at ten days interval): did not differ in their weight at any time point analyzed | TUNEL positive cell numbers (guinea pig eyes; [8]): No significant increase | microglial infiltration (guinea pig eyes; [8]): No significant increase | retinal gliosis (guinea pig eyes; [8]): No significant increase | intraocular inflammatory or toxic effect (guinea pig eyes; repeatedly intravitreally applied, guinea pigs (summary)): did not result in an intraocular inflammatory or toxic effect

acidic fibroblast growth factor [aFGF]
RPE cell DNA synthesis (bovine RPE cell [1]): stimulated | RPE cell migration (bovine RPE cell [2]): significantly enhanced

basic fibroblast growth factor [bFGF]
RPE cell DNA synthesis (bovine RPE cell [1]): stimulated | RPE cell migration (bovine RPE cell [2]): significantly enhanced

epidermal growth factor [EGF]
Visual Acuity (Decimal) at last examination ([3]; 0.75 μg EGF in 50 μl intravitreal, one line per patient (1-7), follow-up one to seven weeks): 0.09 and 0.03 and 0.06 and 0.1 (2×) and 0.08 and 0.05 | Intraocular Pressure [3, 9]: 17 mmHg and 16 mmHg | Quality of vision [3, 9]: Improved | Improvement in ETDRS letters ([3]; 0.75 μg EGF intravitreal, one line per patient (1-7), last examination vs before injection): 3 ETDRS letters and 8 ETDRS letters and 9 ETDRS letters and 26 ETDRS letters and 6 ETDRS letters and 11 ETDRS letters and 0 ETDRS letters | side effects ([3]; besides conjunctival vessel dilatation or circumscribed subconjunctival hemorrhage at the site of the injection): no other side effects were noted | intraocular pressure after injection, upper bound in all eyes ([3]; none of the eyes beyond this value): ≤ 21 mmHg | patients with improvement in measured visual acuity ([3]; out of seven patients, follow-up one week to seven weeks): six showed an improvement in their measured visual acuity | visual function and macular morphology ([3]; patients with geographic atrophy, intravitreal application (summary of Examples 1 and 2)): improvement in visual function and macular morphology | intraocular tolerability ([3]; patients, intravitreal application (summary statement)): well tolerated intraocularly without signs of intraocular inflammation or toxicity | cells in the anterior chamber fluid or vitreous cavity (slit lamp-based biomicroscopy) ([3]; seven patients): In none of the eyes | central visual field (perimetry) ([3]; seven patients): also improved | hemorrhages or other newly developed pathologies in the retina ([3]; seven patients): none of the eyes revealed hemorrhages or other newly developed pathologies in the retina | signs of intraocular inflammation, lens opacification, optic media clarity, intraocular pressure change ([3]; seven patients): no signs of intraocular inflammation, lens opacification, changes in the clarity of the optic media, or any significant change in intraocular pressure | thickness of the tissue in the foveolar region (fundus examination, OCT) ([3]; seven patients): tendency of an increase | RPE cell DNA synthesis (bovine RPE cell [1]): stimulated | EGF-EGFR-MAPK signal transduction pathway induction [4]: induces the EGF-EGFR-MAPK (mitogen-activated protein kinase) signal transduction pathway | ARPE-19 cell proliferation (ARPE-19 cell line [5]): increased with higher concentrations | change in intraocular pressure (IOP) as measured by tonometry (adult rabbits' eyes; [10]): No significant change | change in retinal thickness as measured by OCT (adult rabbits' eyes; [10]): No significant change | Intraocular pressure (IOP) (adult rabbits' eyes; 5 Dec. 2018): 6 mmHg | Intraocular pressure (IOP) (adult rabbits' eyes; 29 Dec. 2018): 8 mmHg | cell count of the retinal layers (histomorphometry) (adult rabbits' eyes; injected vs contralateral eyes, posterior pole, midpoint, equator, ora serrata region, all P-values>0.20): did not differ significantly | apoptotic cells in TUNEL staining (adult rabbits' eyes; rabbit eyes): neither in the right eyes or in the left eyes, apoptotic cells were detected | intravital examinations of the external eye and the anterior segment (toxicity, cataract) (adult rabbits' eyes; rabbits, repeated intravitreal injections): did not reveal any sign of toxicity or development of cataract | intraocular inflammatory or toxic effect (adult rabbits' eyes; repeatedly intravitreally applied, rabbits (summary)): did not result in an intraocular inflammatory or toxic effect | ARPE-19 cell migration (ARPE-19 cell line [6]): increased with higher concentrations | EGFR signaling via the PI3K/Akt pathway (EGFR): caused an increase | RPE cell migration (bovine RPE cell [2]): significantly enhanced | survival of RPE D407 cells (RPE D407 cells): stimulated survival of RPE D407 cells | subjective vision ([7]; 7th day after the injection): marked improvement in vision | Visual acuity ([7]; 7th day after the injection, 0.03 before the injection): 0.1 | light differential sensitivity in the central zone (computer perimetry) ([7]; after injection, central four measurement points, 11.3 dB before): 24.8 dB per measurement point | Intraocular Pressure ([7]; human, in vivo): unchanged within normal limits | conjunctival injection ([7]; human, in vivo): had subsided | finding on the surface of the eye ([7]; human, in vivo): mixed moderate conjunctival injection | pathological reactions of the anterior segment of the eye ([7]; human, in vivo): no pathological reactions | foveolar zone thickness upon optical coherence tomography ([7]; seven days after the injection): 71 μm | central visual acuity ([7]; third day after injection): unchanged | optical coherence tomography images of the fundus ([7]; third day after injection): unchanged | peripheral vision ([7]; third day after injection): remained unchanged | subjective vision (metamorphopsias) ([7]; third day after injection): the distortions and curvatures of objects (metamorphopsias) disappeared | foveolar zone thickness upon optical coherence tomography ([7]; two weeks later): 73 μm

insulin-like growth factor-1 [IGF-1]
RPE cell migration (bovine RPE cell [2]): significantly enhanced

platelet-derived growth factor [PDGF]
RPE cell DNA synthesis (bovine RPE cell [1]): stimulated | RPE cell migration (bovine RPE cell [2]): significantly enhanced
